# Experimental data: patent US20260217735A1, “HETEROCYCLES AND USES THEREOF” (Kumquat Biosciences Inc., priority 2023, published 2026)
# Where two headings read alike, the source gives them in different places.
# Assays:
# [1] = tested on: LS123 cells; experiment: Ras cellular assay, growth of cells with K-Ras G12S mutation (CellTiter-Glo); assay type: cell-based; settings: Homo sapiens, LS-123; KRAS G12S cell line; read-out: IC50 against LS123 cells
# Protocol: For example, this assay can be also used to assess selective growth inhibition of a mutant Ras protein relative to a wildtype or different mutant Ras protein.
# A549 (ATCC CRL-185) and LS123 (ATCC CRL-255) cell lines comprise a G12S mutation and can be used to assess Ras cellular signaling in vitro, e.g., in response to treatment with a compound described herein. A549 culture medium is prepared with RPMI-1640 and 10% heat-inactivated FBS. LS123 culture medium is prepared with RPMI-1640 and 10% heat-inactivated FBS. A CellTiter-Glo (CTG) luminescent based assay (Promega) is used to assess growth of the cells, as a measurement of the ability of the compounds herein to inhibit Ras signaling in the cells. The cells (e.g., 800 per well) are seeded in their respective culture medium in standard tissue culture-treated 384-well format plates (Falcon #08-772-116) or ultra-low attachment surface 384-well format plates (S-Bio #MS-9384WZ). […] Cell viability can be monitored (e.g., approximately 6 days later) according to the manufacturer's recommended instructions, where CellTiter-Glo reagent is added (e.g., approximately 10 μL), vigorously mixed, covered, and placed on a plate shaker (e.g., approximately for 20 min) to ensure sufficient cell lysis prior to assessment of luminescent signal. The IC50 values are determined using the four parameter fit. […]
# [2] = biological target: T1, KRAS G12V (Homo sapiens, UniProt P01116, G12V); experiment: HTRF assay, KRAS G12V interaction with SOS1; assay type: biochemical
# T1 construct: made in house; host or cells: E. coli, e.g. BL21 (DE3)
# T1 sequence (P01116 1-188 isoform P01116-2 G12V): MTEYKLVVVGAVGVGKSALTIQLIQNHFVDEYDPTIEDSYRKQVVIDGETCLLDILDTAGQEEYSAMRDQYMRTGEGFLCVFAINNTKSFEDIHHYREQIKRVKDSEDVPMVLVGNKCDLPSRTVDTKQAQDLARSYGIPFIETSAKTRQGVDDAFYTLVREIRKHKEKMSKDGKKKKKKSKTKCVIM
# [3] = biological target: T2, KRAS WT (Homo sapiens, UniProt P01116); experiment: HTRF assay, wildtype KRAS interaction with SOS1; assay type: biochemical; settings: bins <500 nM / 500 nM to 1000 nM, read-out: Inhibition of KRAS WT (IC50)
# T2 construct: made in house; host or cells: E. coli, e.g. BL21 (DE3)
# T2 sequence (P01116 1-188 isoform P01116-2): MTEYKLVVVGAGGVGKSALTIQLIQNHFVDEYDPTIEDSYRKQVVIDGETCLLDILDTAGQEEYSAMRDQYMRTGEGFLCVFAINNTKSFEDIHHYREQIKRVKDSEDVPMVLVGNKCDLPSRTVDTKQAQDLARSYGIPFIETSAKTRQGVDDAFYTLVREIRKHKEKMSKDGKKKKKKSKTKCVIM
# [4] = biological target: T3, KRAS G12S (Homo sapiens, UniProt P01116, G12S); experiment: HTRF assay, KRAS G12S interaction with SOS1; assay type: biochemical
# T3 construct: made in house; host or cells: E. coli, e.g. BL21 (DE3)
# T3 sequence (P01116 1-188 isoform P01116-2 G12S): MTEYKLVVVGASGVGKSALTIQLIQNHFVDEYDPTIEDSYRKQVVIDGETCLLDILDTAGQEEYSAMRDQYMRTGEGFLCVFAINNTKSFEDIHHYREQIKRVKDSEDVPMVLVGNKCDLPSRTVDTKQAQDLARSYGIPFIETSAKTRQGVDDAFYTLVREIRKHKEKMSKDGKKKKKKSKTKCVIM
# [5] = biological target: T4, KRAS G12D (Homo sapiens, UniProt P01116, G12D); experiment: HTRF assay, KRAS G12D interaction with SOS1; assay type: biochemical
# T4 construct: made in house; host or cells: E. coli, e.g. BL21 (DE3)
# T4 sequence (P01116 1-188 isoform P01116-2 G12D): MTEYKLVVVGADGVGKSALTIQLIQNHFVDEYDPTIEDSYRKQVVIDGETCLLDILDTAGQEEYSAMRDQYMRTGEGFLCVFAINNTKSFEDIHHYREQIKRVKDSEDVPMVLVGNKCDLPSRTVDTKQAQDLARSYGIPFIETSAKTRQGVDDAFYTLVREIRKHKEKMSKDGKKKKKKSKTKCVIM
# [6] = tested on: MiaPaca2 cells; experiment: Ras cellular assay, growth of cells with K-Ras G12C mutation; assay type: cell-based; settings: Homo sapiens, MIA PaCa-2
# How it was run: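 Anchorage-independent growth: G12C-mutant MIA PaCa-2 plated in soft agar, time-zero plate read the next day when compound was dosed (final DMSO 0.3%). After growth to day 10, MTS-type absorbance at 490/660 nm relative to time zero gave IC50 via four-parameter fitting.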
# [7] = bins <500 nM / 500 nM to 1000 nM, read-out: Inhibition of KRAS G12V (IC50)
# [8] = bins <500 nM / 500 nM to 1000 nM, read-out: Inhibition of KRAS G12S (IC50)
# [9] = bins <500 nM / 500 nM to 1000 nM, read-out: Inhibition of KRAS G12D (IC50)
# [10] = cell proliferation assay, bins ≤500 nM / >500 nM, read-out: Inhibition of MiaPaca2 Cells (IC50)
SMILES,IC50 [1],"IC50 [2, 7]",IC50 ([2]; read-out: IC50 against KRAS G12V),IC50 [3],"IC50 [4, 8]",IC50 ([4]; read-out: IC50 against KRAS G12S),"IC50 [5, 9]",IC50 ([5]; read-out: IC50 against KRAS G121),"IC50 ([6]; KRAS G12C cell line, read-out: IC50 against MiaPaca2 cells)","IC50 [6, 10]"
"CCN(c1nc(OCC23CCCN2C(COc2cc(C(F)(F)F)ncn2)CC3)nc2c(F)c(-c3ccc(F)c4sc(N)c(C#N)c34)c(Cl)cc12)[C@@H]1CCN(C(=O)n2cc(C)nc2C)[C@@H]1C (single isomer, unassigned) [Compound 197]",4.6 nM,< 500 nM,< 5 nM,< 500 nM,< 500 nM,< 5 nM,< 500 nM,< 5 nM,0.42 nM,–
"CC(C)c1cn(C(=O)N2CC[C@@H](N(C)c3nc(OC[C@@]45CCCN4C[C@H](F)C5)nc4c(F)c(-c5ccc(F)c6sc(N)c(C#N)c56)c(Cl)cc34)[C@H]2C)cn1 [Compound 213, 2-amino-4-(6-chloro-8-fluoro-2-(((2R,7aS)-2-fluorotetrahydro-1H-pyrrolizin-7a(5H)-yl)methoxy)-4-(((2R,3R)-1-(4-isopropyl-1H-imidazole-1-carbonyl)-2-methylpyrrolidin-3-yl)(methyl)amino)quinazolin-7-yl)-7-fluorobenzo[b]thiophene-3-carbonitrile]",–,< 500 nM,–,< 500 nM,< 500 nM,–,< 500 nM,–,–,≤ 500 nM
"Cc1cn(C(=O)N2CC3(CCCCN(c4nc(OC[C@@]56CCCN5C[C@H](F)C6)nc5c(F)c(-c6ccc(F)c7sc(N)c(C#N)c67)c(Cl)cc45)C3)C2)cn1 [Compound 164, 2-amino-4-(6-chloro-8-fluoro-2-(((2R,7aS)-2-fluorotetrahydro-1H-pyrrolizin-7a(5H)-yl)methoxy)-4-(2-(4-methyl-1H-imidazole-1-carbonyl)-2,6-diazaspiro[3.6]decan-6-yl)quinazolin-7-yl)-7-fluorobenzo[b]thiophene-3-carbonitrile]",–,< 500 nM,–,< 500 nM,< 500 nM,–,< 500 nM,–,–,≤ 500 nM
"Cc1c(F)c(N)cc(-c2ncc3c(N(C)[C@@H]4CCN(C(=O)n5cnc(F)n5)[C@@H]4C)nc(OC[C@@]45CCCN4C[C@H](F)C5)nc3c2F)c1C(F)(F)F [Compound 185, ((2R,3R)-3-((7-(5-amino-4-fluoro-3-methyl-2-(trifluoromethyl)phenyl)-8-fluoro-2-(((2R,7aS)-2-fluorotetrahydro-1H-pyrrolizin-7a(5H)-yl)methoxy)pyrido[4,3-d]pyrimidin-4-yl)(methyl)amino)-2-methylpyrrolidin-1-yl)(3-fluoro-1H-1,2,4-triazol-1-yl)methanone]",–,< 500 nM,–,< 500 nM,< 500 nM,–,< 500 nM,–,–,≤ 500 nM
"CN(c1nc(OC[C@@]23CCCN2C[C@H](F)C3)nc2c(F)c(-c3ccc(F)c4sc(N)c(C#N)c34)c(Cl)cc12)[C@H]1CCN(C(=O)n2cncn2)C1 [Compound 179, 4-(4-(((S)-1-(1H-1,2,4-triazole-1-carbonyl)pyrrolidin-3-yl)(methyl)amino)-6-chloro-8-fluoro-2-(((2R,7aS)-2-fluorotetrahydro-1H-pyrrolizin-7a(5H)-yl)methoxy)quinazolin-7-yl)-2-amino-7-fluorobenzo[b]thiophene-3-carbonitrile]",–,< 500 nM,–,< 500 nM,< 500 nM,–,< 500 nM,–,–,≤ 500 nM
